Results on 20 compounds are retold here after US6624162B2, “Imidazopyridine compounds as 5-HT4 receptor modulators” (Pfizer Inc., priority 2001, dated 2003).

Tested on in the first data set: not given
Assay: not given
Conditions: not given
Broadly, the melting point is the temperature, or range, at which the solid turns liquid. The compound `CCCCN1CCC(CNC(=O)c2ccc(N)n3cc(CC)nc23)CC1` displayed a melting point of 139 to 145 °C.

The compound `CCc1cn2c(N)c(Cl)cc(C(=O)NC3CCN(CCCOC)CC3)c2n1` had a melting point of 179 °C.

On to `CCc1cn2c(N)c(Cl)cc(C(=O)NCC3CCNCC3)c2n1`, for which the melting point stood at 153 °C.

For `CCCCN1CCC(CNC(=O)c2ccc(N)n3cc(CCC)nc23)CC1`, the melting point came out at 172 °C.

In the case of `CCCc1cn2c(N)c(Cl)cc(C(=O)NC3CCN(CCCOC)CC3)c2n1.Cl`, the melting point is 243 °C.

In turn, `CCCc1cn2c(N)ccc(C(=O)NC3CCN(CCCOC)CC3)c2n1.Cl` displayed a melting point of 238 °C.

The compound `CCCCN1CCC(CNC(=O)c2cc(Cl)c(N)n3cc(C(C)C)nc23)CC1` displayed a melting point of 168 °C.

The compound `CCCCN1CCC(CNC(=O)c2ccc(N)n3cc(C(C)C)nc23)CC1` came in with a melting point of 138 °C.

Take `CCCCN1CCC(CNC(=O)c2cc(Cl)c(N)n3cc(-c4ccccc4)nc23)CC1.Cl`: the melting point came out at 263 °C.

Compound `CCCCN1CCC(CNC(=O)c2ccc(N)n3cc(-c4ccccc4)nc23)CC1` displayed a melting point of 221 °C.

As to `CCCCN1CCC(CNC(=O)c2ccc(N)n3cc(Cl)nc23)CC1`, the melting point is 113 °C.

`Cc1cn2c(N)c(Cl)cc(C(=O)NCC3CCN(CC(C)C)CC3)c2n1` registered a melting point of 216 to 219 °C.

In turn, `CCc1cn2c(N)c(Cl)cc(C(=O)NCC3CCN(CCC(C)(C)C)CC3)c2n1` displayed a melting point of 234 °C.

In turn, `CCc1cn2c(N)c(Cl)cc(C(=O)NCC3CCN(CC(C)(C)OC)CC3)c2n1` came in with a melting point of 211 °C.

`COC(C)(C)CN1CCC(CNC(=O)c2cc(Cl)c(N)n3cc(C)nc23)CC1` yielded a melting point of 211 °C.

As to `CCCCN1CCC(CNC(=O)c2cc(Cl)c(N)n3cc(C)nc23)CC1`, the melting point lay within 188 to 191 °C.

`COCCCN1CCC(CNC(=O)c2cc(Cl)c(N)n3cc(C)nc23)CC1` came in with a melting point of 167 °C.

Turning to `CCCCN1CCC(CNC(=O)c2cc(Cl)c(NC)n3ccnc23)CC1`, the melting point came to 148 °C.

In the case of `CNc1c(Cl)cc(C(=O)NCC2CCN(CCCOC)CC2)c2nccn12`, the melting point came to 125 °C.

The target in another data set is T1, 5-HT4 receptors (Rattus norvegicus, UniProt Q62758).
T1 construct: The remaining inner tube of smooth muscle was known as the TMM; from tissue; host or cells: rat oesophagus tunica muscularis mucosae (TMM), male SD rats (Charles River)
T1 sequence (Q62758 whole entry): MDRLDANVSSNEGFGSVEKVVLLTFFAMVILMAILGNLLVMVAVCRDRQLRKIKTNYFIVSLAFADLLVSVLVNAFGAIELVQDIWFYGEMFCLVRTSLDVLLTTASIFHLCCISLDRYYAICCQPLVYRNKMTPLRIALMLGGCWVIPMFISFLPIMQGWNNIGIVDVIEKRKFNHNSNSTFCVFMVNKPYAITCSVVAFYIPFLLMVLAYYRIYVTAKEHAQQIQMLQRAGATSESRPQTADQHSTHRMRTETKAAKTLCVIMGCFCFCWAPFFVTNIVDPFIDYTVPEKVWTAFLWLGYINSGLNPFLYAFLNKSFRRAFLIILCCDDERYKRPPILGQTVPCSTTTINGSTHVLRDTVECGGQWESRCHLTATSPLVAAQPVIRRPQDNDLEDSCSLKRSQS
Put plainly: Functional assay: rat oesophagus TMM relaxation. Conditions: carbachol-contracted rat oesophagus TMM, 1 μM antagonist. The source says:
More specifically, partial agonist activity can be measured according to the following procedures.
Male SD rats (Charles River) weighing 250-350 g were stunned and then killed by cervical dislocation. The oesophagus was dissected from immediately proximal to the stomach (including piece of stomach to mark distal end) up to the level of the trachea and then placed in fresh Krebs' solution.
The outer skeletal muscle layer was removed in one go by peeling it away from the underlying smooth muscle layer using forceps (stomach to tracheal direction). The remaining inner tube of smooth muscle was known as the TMM. This was trimmed to 2 cm from the original ‘stomach-end’ and the rest discarded.
The TMMs were mounted as whole ‘open’ tubes in longitudinal orientation in 5 ml organ baths filled with warm (32° C.) aerated Krebs. Tissues were placed under an initial tension of 750 mg and allowed to equilibrate for 60 minutes. The tissues were re-tensioned twice at 15 minute intervals during the equilibration period. The pump flow rate was set to 2 ml/min during this time.
Following equilibration, the pump was switched off. The tissues were exposed to 1 μM carbachol and contracted and reached a steady contractile plateau within 15 minutes. Tissues were then subject to 1 μM 5-HT (this was to prime the tissues). The tissues relaxed in response to 5-HT fairly rapidly—within 1 minute. […]
`O=C(OCCN1CCCCC1)c1c[nH]c2ccccc12` [SB 203,186, 1H-Indole-3-carboxylic acid, 2-(1-piperidinyl)ethyl ester]: the “reversal of 5-HT induced relaxation” value is listed as “reversed 5-HT induced relaxation”.
